Here are results for 6 compounds from patent US9884858B2, “Diaryl-azole compound” (Sumitomo Chemical Company, Limited, priority 2014, dated 2018).

Some results are limits rather than exact numbers.

Holding throughout (format): in vivo
The subject of assay [1] is Blattella germanica. Nature of the assay: Test Example 9: filter paper with sucrose bait, Blattella germanica. As to conditions: 500 ppm, 0.7 ml on filter paper, male imagoes, after 6 days. The protocol: The formulation of the compound 1-6 or 1-24 as obtained in Formulation Example 5 was diluted with water, so as to have a concentration of each compound of 500 ppm, to obtain a diluent.
A filter paper having a diameter of 5.5 cm was spread on the bottom of a polyethylene cup having the same diameter and 0.7 ml of the diluent was added dropwise onto the filter paper, and 30 mg of sucrose was uniformly placed as bait. Into the polyethylene cup, 2 male imagoes of Blattella germanica were released, and the cup was sealed with a lid. After 6 days, the life and death of Blattella germanica was examined, the number of dead insects was counted, and the death rate was calculated according to the following equation. Death rate (%)=(Number of dead insects/Number of tested insects)×100

The test system of assay [2] is Haemaphysalis longicornis. Briefly: Test Example 11: coated screw tube contact test, Haemaphysalis longicornis ticks. The note with it: 2 mg compound coated on inner wall of screw tube, non-blood-sucking nymphal ticks, after 2 days. The protocol:
2 mg of each of the compounds 1-6, 1-10, 1-15, 1-24 or 1-37 to 1-38 was weighed in a screw tube (Maruemu No. 5; 27×55 mm), and 0.2 mL of acetone was added thereto and sealed with a cap to dissolve the compound. The screw tube was rotated and inverted to uniformly coat the liquid onto the whole inner wall of the tube. After removing the cap, the solution was air-dried for about 2 hours, then non-blood-sucking nymphal ticks, Haemaphysalis longicornis (5 ticks/group) were released, and the tube was sealed with the cap. After 2 days, the number of dead insects was counted, and the death rate was calculated according to the following equation: Death rate (%)=100×(Number of dead insects/Number of tested insects)

The subject of assay [3] is Nilaparvata lugens. Briefly: Test Example 4: soil drench of rice seedling, Nilaparvata lugens larvae released. As to conditions: 500 ppm, 5 ml drench at foot of rice seedling, third instar larvae released after 7 days, examined 6 days later. The protocol: The formulation of the compound 1-15 as obtained in Formulation Example 5 was diluted with water, so as to have a concentration of the compound of 500 ppm, to obtain a diluent.
On the other hand, a rice seedling (2 weeks after sowing, the second leaf stage) planted in a plastic cup was drenched at its foot with 5 ml of the diluent, and kept in a greenhouse at 25° C. for 7 days. 20 third instar larvae of Nilaparvata lugens were released, and further kept in the greenhouse for 6 days, then the number of surviving Nilaparvata lugens parasitic on the rice was examined, and the death rate was calculated according to the following equation: Death rate (%)=(1−Surviving insects/20)×100
wherein the non-treated section refers to a section where a liquid prepared by diluting the formulation not containing the present compound in Formulation Example 5 with the same amount of water as in the treated section was sprayed.

The test system of assay [4] is Aphis gossypii. Nature of the assay: Test Example 2: soil drench of cucumber seedling, later inoculated with Aphis gossypii. The note with it: 500 ppm, 5 ml drench at foot of cucumber seedling, inoculated after 7 days, examined 6 days later. On the procedure:
The formulations of the compound 1-24 as obtained in Formulation Example 5 was diluted with water, so as to have a concentration of each compound of 500 ppm, to obtain a diluent. On the other hand, a cucumber seedling (the second true leaf stage) planted in a plastic cup was drenched at its foot with 5 ml of the diluent, and kept in a greenhouse at 25° C. for 7 days. On the cucumber leaf surface was inoculated about 30 Aphis gossypii (whole stage), and further kept in the greenhouse for 6 days, then the number of the surviving Aphis gossypii parasitic on the leaves of the cucumber was examined, and the control value was calculated according to the following equation: Control value (%)=(1−(Cb×Tai)/(Cai×Tb))×100 wherein the symbols represent as follows: Cb: the number of the insects in a non-treated section on inoculating insects Cai: the number of the surviving parasitic insects in a non-treated section on observation Tb: the number of the insects in a treated section on inoculating insects Tai: the number of the surviving parasitic insects in a treated section on observation wherein the non-treated section refers to a section where a liquid prepared by diluting the formulation not containing the present compound in Formulation Example 5 with the same amount of water as in the treated section was sprayed.

In the case of `CCSc1cc(C(F)(F)F)ccc1-c1nc(-c2ccc(C(F)(F)F)cn2)no1` [Compound 1-6], the Death rate in assay [1] and in assay [2] was 100% in each case.

In turn, `CCSc1cc(C(F)(F)F)ccc1-c1nnc(-c2ccc(C(F)(F)F)cn2)s1` [Compound 1-10] yielded a Death rate in assay [2] of 100%.

In the case of `CCS(=O)(=O)c1cccnc1-c1noc(-c2cc(C(F)(F)F)cc(C(F)(F)F)c2)n1` [Compound 1-15], the Death rate in assay [3] is no less than 90%; in assay [2], 100%.

`CCS(=O)(=O)c1ccccc1-c1noc(-c2cc(C(F)(F)F)cc(C(F)(F)F)c2)n1` [Compound 1-24] returned a controlling value in assay [4] of no less than 90%. The Death rate in assay [1] and in assay [2] was 100% throughout.

In assay [2], `CCS(=O)(=O)c1cccnc1-c1noc(-c2ccc(C(F)(F)F)s2)n1` [Compound 1-37] yielded a Death rate of 100%.

For `CCS(=O)(=O)c1cccnc1-c1noc(-c2cc(Cl)cc(Cl)c2)n1` [Compound 1-38], the Death rate in assay [2] was 100%.
